Measurements reported in US11746100B2 (GLOBAL BLOOD THERAPEUTICS, INC., priority 2020, dated 2023).

Biological target: T1, human ferroportin (Homo sapiens, UniProt Q9NP59)
T1 construct: luciferase reporter (read with the Nano-Glo Luciferase Assay System); expressed in transfected cells; host or cells: CHO cells, stably transfected, expression induced with doxycycline
T1 sequence (Q9NP59 1-571): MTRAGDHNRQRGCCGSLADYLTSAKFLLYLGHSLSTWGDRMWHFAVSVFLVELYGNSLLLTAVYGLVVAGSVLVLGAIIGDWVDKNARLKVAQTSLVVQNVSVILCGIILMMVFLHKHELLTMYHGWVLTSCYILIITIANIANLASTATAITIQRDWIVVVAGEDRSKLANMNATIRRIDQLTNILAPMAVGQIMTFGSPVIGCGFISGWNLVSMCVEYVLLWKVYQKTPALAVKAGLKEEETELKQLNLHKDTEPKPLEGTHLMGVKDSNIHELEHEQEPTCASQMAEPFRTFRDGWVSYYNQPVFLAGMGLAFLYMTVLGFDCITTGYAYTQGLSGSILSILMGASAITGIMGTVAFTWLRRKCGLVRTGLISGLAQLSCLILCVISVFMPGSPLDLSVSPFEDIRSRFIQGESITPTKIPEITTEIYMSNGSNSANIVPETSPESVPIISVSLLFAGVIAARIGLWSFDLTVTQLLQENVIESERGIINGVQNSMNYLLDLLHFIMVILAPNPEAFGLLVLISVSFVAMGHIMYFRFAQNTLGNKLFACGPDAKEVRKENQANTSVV
Test: Biological in-vitro ferroportin internalization assay (luciferase reporter)
Assay type: cell-based
Conditions: average pEC50; stably-transfected CHO cell line expressing human ferroportin tagged to a luciferase reporter; 6 h incubation with test compound
How it was run: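 Stably transfected CHO cells expressing luciferase-tagged human ferroportin, plated 24 h with ferric ammonium citrate and induced with doxycycline for 24 h. Compounds incubated 6 h, then luciferase activity measured by Nano-Glo; average pEC50 reported.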

Question: Which pEC50 does the source give for `CN(CC(=O)NC(C)(C)C)c1nc(-c2ncc(CCO)s2)nc2c1CCC2` [Compound 107, N-tert-butyl-2-({2-[5-(2-hydroxyethyl)-1,3-thiazol-2-yl]-5H,6H,7H-cyclopenta[d]pyrimidin-4-yl}(methyl)amino)acetamide] here?
Answer: Its pEC50 is 5.7.

Question: With `CC(C)NC(=O)CN(C)c1nc(-c2cc(OCC(C)(C)O)ccn2)nc2c1C(C)(C)CC2` [Compound 439, 2-({2-[4-(2-hydroxy-2-methylpropoxy)pyridin-2-yl]-5,5-dimethyl-5H,6H,7H-cyclopenta[d]pyrimidin-4-yl}(methyl)amino)-N-(propan-2-yl)acetamide] as the molecule, how does the pEC50 read?
Answer: The pEC50 was 7.8.

Question: For `CN(C)CCCc1ccnc(-c2nc3c(c(N(C)CC(=O)NC(C)(C)C)n2)CCC3)c1` [Compound 475, N-tert-butyl-2-[(2-{4-[3-(dimethylamino)propyl]pyridin-2-yl}-5H,6H,7H-cyclopenta[d]pyrimidin-4-yl)(methyl)amino]acetamide], which pEC50 is on record?
Answer: The pEC50 was 7.6.

Question: With `CN(CC(=O)Nc1cnn(C)c1)c1nc(-c2cc(OCC3CC3)ccn2)nc2c1CCC2` [Compound 215, 2-({2-[4-(cyclopropylmethoxy)pyridin-2-yl]-5H,6H,7H-cyclopenta[d]pyrimidin-4-yl}(methyl)amino)-N-(1-methyl-1H-pyrazol-4-yl)acetamide] as the molecule, how does the pEC50 read?
Answer: The pEC50 was 7.5.

Question: For `CN(CC(=O)NC1(C(F)(F)F)CC1)c1nc(-c2cc(OCC(C)(C)N(C)C)ccn2)nc2c1CCC2` [Compound 423, 2-[(2-{4-[2-(dimethylamino)-2-methylpropoxy]pyridin-2-yl}-5H,6H,7H-cyclopenta[d]pyrimidin-4-yl)(methyl)amino]-N-[1-(trifluoromethyl)cyclopropyl]acetamide], which pEC50 is on record?
Answer: The pEC50 was 7.7.

Question: Which pEC50 does the source give for `COc1ccnc(-c2nc3c(c(N(C)[C@H]4CCN(c5ccccc5)C4=O)n2)CCC3)c1` [Compound 205, (3S)-3-{[2-(4-methoxypyridin-2-yl)-5H,6H,7H-cyclopenta[d]pyrimidin-4-yl](methyl)amino}-1-phenylpyrrolidin-2-one] here?
Answer: The pEC50 was 7.5.

Question: `CNCCOc1ccnc(-c2nc3c(c(NCC(=O)NC(C)(C)C)n2)CCC3)c1` [Compound 485, N-tert-butyl-2-[(2-{4-[2-(methylamino)ethoxy]pyridin-2-yl}-5H,6H,7H-cyclopenta[d]pyrimidin-4-yl)amino]acetamide] was tested. Which pEC50 did it give?
Answer: Its pEC50 is 7.1.

Question: Which pEC50 does the source give for `CN(C)CCOc1ccnc(-c2nc3c(c(NCC(=O)NC(C)(C)C)n2)CCC3)c1` [Compound 484, N-tert-butyl-2-[(2-{4-[2-(dimethylamino)ethoxy]pyridin-2-yl}-5H,6H,7H-cyclopenta[d]pyrimidin-4-yl)amino]acetamide] here?
Answer: The pEC50 was 7.

Question: For `c1ccc(-c2nc3c(c(N4CCCOCC4)n2)CCC3)nc1` [Compound 93, 4-[2-(pyridin-2-yl)-5H,6H,7H-cyclopenta[d]pyrimidin-4-yl]-1,4-oxazepane], which pEC50 is on record?
Answer: Its pEC50 is 6.1.

Question: With `CN(CC(=O)N1CCCCC1)c1nc(-c2cc(OCCO)ccn2)nc2c1CCC2` [Compound 263, 2-({2-[4-(2-hydroxyethoxy)pyridin-2-yl]-5H,6H,7H-cyclopenta[d]pyrimidin-4-yl}(methyl)amino)-1-(piperidin-1-yl)ethan-1-one] as the molecule, how does the pEC50 read?
Answer: The pEC50 was 8.

Question: `CN(CC(=O)NC1CCCCC1)c1nc(-c2cc(OCCO)ccn2)nc2c1CCC2` [Compound 144, N-cyclohexyl-2-({2-[4-(2-hydroxyethoxy)pyridin-2-yl]-5H,6H,7H-cyclopenta[d]pyrimidin-4-yl}(methyl)amino)acetamide] was tested. Which pEC50 did it give?
Answer: The pEC50 was 7.5.

Question: With `COc1ccc(NC(=O)CN(C)c2nc(-c3cc4ccccc4cn3)nc3c2CCC3)nc1` [Compound 233, 2-{[2-(isoquinolin-3-yl)-5H,6H,7H-cyclopenta[d]pyrimidin-4-yl](methyl)amino}-N-(5-methoxypyridin-2-yl)acetamide] as the molecule, how does the pEC50 read?
Answer: The pEC50 was 7.4.

Question: `Cc1ccnc(-c2nc3c(c(N(C)CC(=O)NC4(C)CCCC4)n2)CCC3)c1` [Compound 105, 2-{methyl[2-(4-methylpyridin-2-yl)-5H,6H,7H-cyclopenta[d]pyrimidin-4-yl]amino}-N-(1-methylcyclopentyl)acetamide] was tested. Which pEC50 did it give?
Answer: Its pEC50 is 7.7.

Question: Which pEC50 does the source give for `Cc1cnc(-c2nc3c(c(N(C)CC(=O)NC(C)(C)C)n2)CCC3)cc1C` [Compound 60, N-tert-butyl-2-{[2-(4,5-dimethylpyridin-2-yl)-5H,6H,7H-cyclopenta[d]pyrimidin-4-yl](methyl)amino}acetamide] here?
Answer: The pEC50 was 7.6.

Question: With `COc1ccc(NC(=O)CN(C)c2nc(-c3cc4cnccc4cn3)nc3c2CCC3)cn1` [Compound 258, N-(6-methoxypyridin-3-yl)-2-{methyl[2-(2,6-naphthyridin-3-yl)-5H,6H,7H-cyclopenta[d]pyrimidin-4-yl]amino}acetamide] as the molecule, how does the pEC50 read?
Answer: The pEC50 was 6.3.

Question: With `COc1ccc(NC(=O)CN(C)c2nc(-c3cc(OCCF)ccn3)nc3c2CCC3)cn1` [Compound 242, 2-({2-[4-(2-fluoroethoxy)pyridin-2-yl]-5H,6H,7H-cyclopenta[d]pyrimidin-4-yl}(methyl)amino)-N-(6-methoxypyridin-3-yl)acetamide] as the molecule, how does the pEC50 read?
Answer: The pEC50 was 7.7.

Question: For `COc1cc2c(cn1)N(C(=O)CN(C)c1nc(-c3cc(OCCO)ccn3)nc3c1CCC3)CC2` [Compound 375, 2-({2-[4-(2-hydroxyethoxy)pyridin-2-yl]-5H,6H,7H-cyclopenta[d]pyrimidin-4-yl}(methyl)amino)-1-{5-methoxy-1H,2H,3H-pyrrolo[2,3-c]pyridin-1-yl}ethan-1-one], which pEC50 is on record?
Answer: Its pEC50 is 8.

Question: With `CN(C)CCOc1ccnc(-c2nc3c(c(N(C)CC(=O)NC(C)(C)C)n2)C(C)(C)CC3)c1` [Compound 413, N-tert-butyl-2-[(2-{4-[2-(dimethylamino)ethoxy]pyridin-2-yl}-5,5-dimethyl-5H,6H,7H-cyclopenta[d]pyrimidin-4-yl)(methyl)amino]acetamide] as the molecule, how does the pEC50 read?
Answer: Its pEC50 is 8.

Question: For `COc1ccnc(-c2nc3c(c(N(C)CC(=O)NCCN(C)C)n2)CCC3)c1` [Compound 476, N-[2-(dimethylamino)ethyl]-2-{[2-(4-methoxypyridin-2-yl)-5H,6H,7H-cyclopenta[d]pyrimidin-4-yl](methyl)amino}acetamide], which pEC50 is on record?
Answer: The pEC50 was 6.7.

Question: `Cc1cccc(NC(=O)CN(C)c2nc(-c3cc(OCCO)ccn3)nc3c2CCC3)c1` [Compound 292, 2-({2-[4-(2-hydroxyethoxy)pyridin-2-yl]-5H,6H,7H-cyclopenta[d]pyrimidin-4-yl}(methyl)amino)-N-(3-methylphenyl)acetamide] was tested. Which pEC50 did it give?
Answer: Its pEC50 is 8.1.

Question: `COc1ccc(NC(=O)CN(C)c2nc(-c3cc(OCC(C)(C)O)ccn3)nc3c2CCC3)nc1` [Compound 214, 2-({2-[4-(2-hydroxy-2-methylpropoxy)pyridin-2-yl]-5H,6H,7H-cyclopenta[d]pyrimidin-4-yl}(methyl)amino)-N-(5-methoxypyridin-2-yl)acetamide] was tested. Which pEC50 did it give?
Answer: Its pEC50 is 7.8.

Question: `CN(CC(=O)NC(C)(C)C)c1nc(-c2cc3c(cn2)OCO3)nc2c1CCC2` [Compound 226, N-tert-butyl-2-[(2-{2H-[1,3]dioxolo[4,5-c]pyridin-6-yl}-5H,6H,7H-cyclopenta[d]pyrimidin-4-yl)(methyl)amino]acetamide] was tested. Which pEC50 did it give?
Answer: Its pEC50 is 7.1.

Question: With `CN(C)c1ccnc(-c2nc3c(c(N4CCCCCC4)n2)CCC3)c1` [Compound 13, 2-[4-(azepan-1-yl)-5H,6H,7H-cyclopenta[d]pyrimidin-2-yl]-N,N-dimethylpyridin-4-amine] as the molecule, how does the pEC50 read?
Answer: The pEC50 was 6.4.

Question: Which pEC50 does the source give for `COc1ccc(NC(=O)CN(C)c2nc(-c3cc4ncsc4cn3)nc3c2CCC3)cn1` [Compound 329, N-(6-methoxypyridin-3-yl)-2-[methyl(2-{[1,3]thiazolo[5,4-c]pyridin-6-yl}-5H,6H,7H-cyclopenta[d]pyrimidin-4-yl)amino]acetamide] here?
Answer: The pEC50 was 6.8.

Question: With `CN(c1nc(-c2ccccn2)nc2c1CCC2)C(C)(C)C(=O)NC(C)(C)C` [Compound 19, N-tert-butyl-2-methyl-2-{methyl[2-(pyridin-2-yl)-5H,6H,7H-cyclopenta[d]pyrimidin-4-yl]amino}propanamide] as the molecule, how does the pEC50 read?
Answer: The pEC50 was 5.4.

Question: With `CN(CC(=O)NC(C)(C)C)c1nc(-c2ccc(CCO)cn2)nc2c1CCC2` [Compound 43, N-tert-butyl-2-({2-[5-(2-hydroxyethyl)pyridin-2-yl]-5H,6H,7H-cyclopenta[d]pyrimidin-4-yl}(methyl)amino)acetamide] as the molecule, how does the pEC50 read?
Answer: Its pEC50 is 7.

Question: How did the pEC50 turn out when `COc1ccnc(-c2nc3c(c(N(C)CC(=O)N[C@H]4CCCC[C@H]4O)n2)CCC3)c1` [Compound 169, N-[(1S,2R)-2-hydroxycyclohexyl]-2-{[2-(4-methoxypyridin-2-yl)-5H,6H,7H-cyclopenta[d]pyrimidin-4-yl](methyl)amino}acetamide] was run?
Answer: Its pEC50 is 7.3.

Question: How did the pEC50 turn out when `CN(CC(=O)N1CCCC1)c1nc(-c2cc(OCC(C)(C)O)ccn2)nc2c1CCC2` [Compound 420, 2-({2-[4-(2-hydroxy-2-methylpropoxy)pyridin-2-yl]-5H,6H,7H-cyclopenta[d]pyrimidin-4-yl}(methyl)amino)-1-(pyrrolidin-1-yl)ethan-1-one] was run?
Answer: Its pEC50 is 8.

Question: With `COc1ccnc(-c2nc3c(c(N(C)CC(=O)N[C@H]4CCC[C@H]4O)n2)CCC3)c1` [Compound 171, N-[(1S,2R)-2-hydroxycyclopentyl]-2-{[2-(4-methoxypyridin-2-yl)-5H,6H,7H-cyclopenta[d]pyrimidin-4-yl](methyl)amino}acetamide] as the molecule, how does the pEC50 read?
Answer: The pEC50 was 7.2.
